Test [1] deals with mutated form of SPT (C133W). It counts as cell-based. The settings on record: HEK293 C133W; for SPT activity: fumonisin B1 24 h, 1 mM L-cycloserine, 10 mM D-serine. On the procedure:
Cells were cultivated in normal media without any supplementation (A) or in the presence of 10 mM L-alanine (B), 10 mM glycine (C); 1 mM L-cycloserine (D); 10 mM D-alanine (E), 10 mM D-serine (F) or 10 mM L-serine (G).
HEK293 cells expressing a mutated form of SPT (C133W) were cultured in the presence of various amino acids and structurally related compounds. The cells were additionally treated with fumonisin B1 (see Example 1).
(§1) A further suitable method to screen for putative suppressors of deoxy-sphingolipid synthesis is as follows: a suitable cell line (e.g. HEK293) is cultured to approximately 60% confluency. The compound of interest is added to the culture medium in the appropriate concentration. Additionally, fumonisin B1 (FB1) is added to a final concentration of 10 μg/ml. After 24 h of incubation, cells are washed with PBS and harvested and an aliquot separated for cell counting. The remaining cells are pelleted and extracted in 500 μl extraction buffer (4 volumes MeOH/KOH+1 volume CHCl3), including an internal reference standard (e.g. deuteriated (d7)-sphinganine, (d7)-sphingosine or synthetic C17-sphingosine). Subsequently, 500 μl chloroform, 500 μl alkaline water and 100 μl 2N ammonia are added, followed by centrifugation (120000×g, 5 min). The upper phase is discarded and the organic phase washed twice with alkaline water. Lipids are dried under a stream of N2 and resolubilized in 50 μl ethanol (95%) and 100 μl methanol:H2O (85:15). The lipids are finally derivatized with o-phthaldialdehyde (OPA) and analysed by LC-MS. OPA derivates are separated on a C18 column. Mobile phase is ammonium acetate (5 mM):methanol=17:83 (25 min, isocratic), followed by a wash with 100% methanol (5 min) at a flow rate of 300 μl/min. Deoxysphingoid bases are ionised by APCI (atmospheric pressure chemical ionisation) and analysed in positive ion mode.

In test [2] the test system is cellular SPT activity. Nature of the test: Accumulation of sphingoid bases in HEK 293 wt cells treated with fumonisin B1 and cytostatics. It counts as cell-based. The settings on record: for DoxSA generation / SA (sphinganine) generation / accumulation: fumonisin B1, increasing concentrations of drug. The procedure: HEK 293 wt cells were cultured in the presence of increasing concentrations of paclitaxel (FIG. 6-I), etoposide (FIG. 6-II) and thalidomide (FIG. 6-III). The cells were additionally treated with fumonisin B1 (FB1), an inhibitor of ceramide synthase (CerS). The inhibition of CerS leads to an intracellular accumulation of the SPT products, namely sphinganine, deoxy-sphinganine. Since the SPT reaction is the rate limiting step in the de novo synthesis pathway, the amount of accumulated sphingoid bases is a measure of the cellular SPT activity. […] Etoposide increased sphinganine and DoxSA production. […] In contrast to paclitaxel and etiposide, the non-cytostatic thalidomide (FIG. 6-III) had no effect.
as §1

The subject of test [3] is HSAN1 mice. Kind of test: L-serine or L-alanine enriched diet in transgenic HSAN1 mice (C133W SPTLC1). It counts as in vivo. An excerpt:
Mice received an L-serine or L-alanine enriched diet (10% L-Serine or L-Alanine w/w) for a period 15 days. […] Plasma deoxy-sphingolipid levels remained low during the whole treatment period (A, pmol/ml; B, days).
Transgenic mice expressing a mutant (C133W) form of SPTLC1 develop a peripheral neuropathy within 10 to 15 months of life. The development of a neuropathy in these HSAN1 mice correlates with highly elevated deoxy-sphinganine and deoxy-sphingosine plasma levels.

Test [4] deals with SPT (wt enzyme). Nature of the test: DoxSA formation in HEK293 wt cells at various L-serine:L-alanine ratios in the presence of FB1. The settings on record: increasing L-serine medium concentrations, varying L-alanine concentrations. It counts as cell-based. The procedure: (§2) HEK293 wt cells (FIG. 7-I) and Hek cells expressing various mutant forms of SPT (wt, C133W, C133Y, V144D) (FIG. 7-II) were cultured at various L-serine:L-alanine ratios in the presence of FB1 (see above Example 1). […] In the second approach L-alanine concentrations were held constant at 2 mM.
as §1, with “The upper phase is discarded and the organic phase washed twice with alkaline water. Lipids are dried under a stream of N2 and resolubilized in 50 μl ethanol (95%) and 100 μl methanol:H2O (85:15).” left out, “OPA derivates are separated on a C18 column. Mobile phase is ammonium acetate (5 mM):methanol=17:83 (25 min, isocratic), followed by a wash with 100% methanol (5 min) at a flow rate of 300 μl/min.” left out

For test [5], the system named is HSAN1 patients. Kind of test: Oral L-serine supplementation in HSAN1 patients (C133Y). It counts as in vivo, humans. The procedure: (A, weeks, B, μM; C, treatment phase; D, washout phase).
14 HSAN1 patients having the C133Y mutation received an oral serine supplementation for a period of 10 weeks followed by a wash out period of two weeks (FIG. 9). Patients were separated in a low dose and a high dose treatment group (n per group=7) receiving either 5 g or 10 g L-serine/day. The plasma sphingolipid composition was analyzed by an acid/base hydrolysis to release the free sphingoid bases. […] In both groups an up to 80% reduction in plasma deoxy-sphingolipid levels was observed. […] During the wash out phase the plasma deoxy-sphingolipid levels raised again.

Test [6] concerns mutant forms of SPT (C133W, C133Y, V144D). Nature of the test: DoxSA formation in Hek cells expressing mutant forms of SPT at increasing L-serine in the presence of FB1. It counts as cell-based. The settings on record: HSAN1 mutants C133W, increasing L-serine medium concentrations, L-alanine constant at 2 mM. The procedure: as §2
as §1, with “The upper phase is discarded and the organic phase washed twice with alkaline water. Lipids are dried under a stream of N2 and resolubilized in 50 μl ethanol (95%) and 100 μl methanol:H2O (85:15).” left out, “OPA derivates are separated on a C18 column. Mobile phase is ammonium acetate (5 mM):methanol=17:83 (25 min, isocratic), followed by a wash with 100% methanol (5 min) at a flow rate of 300 μl/min.” left out

The mark [7] stands for this setting: fumonisin B1, 10 mM supplementation.

Regarding `N[C@H](CO)C(=O)O` [D-serine], the SPT activity entry in test [1] is listed as “generally inhibitory”.
For the molecule `COc1cc([C@@H]2c3cc4c(cc3[C@@H](O[C@@H]3O[C@@H]5CO[C@@H](C)O[C@H]5[C@H](O)[C@H]3O)[C@H]3COC(=O)[C@H]23)OCO4)cc(OC)c1O` [Etoposide, etoposide], in test [2] (fumonisin B1), the “concentration at which DoxSA showed a maximum” value is listed as 0.5 mM. In test [2], the DoxSA generation entry is listed as “increased” and the “SA (sphinganine) generation / accumulation” value was “increased in a dose dependant manner”.
As to `C[C@H](N)C(=O)O` [L-alanine, reference compound], in test [3] (enriched diet), the plasma deoxy-sphingolipid levels result is listed as “increased” and the “time to first neuropathic symptoms” value is listed as 2-3 months. Moreover, the formation of deoxy-sphinganine result in test [1] (setting [7]) is recorded as “increased formation”.
Consider `N[C@@H](CO)C(=O)O` [L-serine], for which the DoxSA formation result in test [4] was “significant decrease”; in test [6], “significant decrease”; in test [6] (listed as L-erine), “efficiently inhibited”. Moreover, the “plasma deoxy-sphinganine and deoxy-sphingosine levels vs untreated mice” value in test [3] (enriched diet 10% w/w for 15 days, 3-4 days after start of treatment) is recorded as “remarkable reduction”. In addition, the “reduction in plasma deoxy-sphinganine and deoxy-sphingosine levels” value in test [3] (enriched diet 10% w/w, after 4-5 days of treatment) was “up to 80%”. In addition, in test [3] (enriched diet, until end of study (18 months), untreated controls neuropathic after 8 to 9 months), the development of neuropathy entry is “did not develop a neuropathy”. Also, the “difference between low and high dose group” value in test [5] (5 g vs 10 g/day, plasma deoxy-sphingolipid levels) was “No significant differences”. The “time to maximal suppression of plasma deoxy-sphinganine and deoxy-sphingosine levels” value in test [5] (HSAN1 patients C133Y, oral 5 g or 10 g/day) is reported as 6 weeks. The “reduction in plasma deoxy-sphingolipid levels” value in test [5] (HSAN1 patients C133Y, oral 5 g or 10 g/day, 10 weeks, both groups) is given as “up to 80%”. The “deoxy-sphingolipid plasma levels during treatment period” value in test [5] (HSAN1 patients C133Y, oral treatment over ten weeks, until end of treatment) is recorded as “remained suppressed”. The “plasma deoxy-sphingolipid levels during wash out phase” value in test [5] (two weeks wash out after 10 weeks of treatment) is recorded as “raised again”. Further, the formation of sphinganine entry in test [1] (setting [7]) is reported as “stimulates the formation”. Further, the “generation of deoxy-sphingoid bases” value in test [1] (setting [7]) is reported as “suppresses”.
For `CC(=O)O[C@H]1C(=O)[C@@]2(C)[C@H]([C@H](OC(=O)c3ccccc3)[C@]3(O)C[C@H](OC(=O)[C@H](O)[C@@H](NC(=O)c4ccccc4)c4ccccc4)C(C)=C1C3(C)C)[C@]1(OC(C)=O)CO[C@@H]1C[C@@H]2O` [Paclitaxel, paclitaxel], in test [2], the DoxSA generation result is recorded as “stimulated DoxSA generation in a dose dependant manner” and the “SA (sphinganine) generation / accumulation” value is “not altered”.
For `N[C@@H]1CON=C1O` [cycloserine, reference compound], the SPT activity entry in test [1] was “generally inhibitory”.
In the case of `NCC(=O)O` [glycine, reference compound], the formation of deoxymethyl-sphinganine result in test [1] (setting [7]) is recorded as “stimulate the formation”.
Consider `O=C1CCC(N2C(=O)c3ccccc3C2=O)C(=O)N1` (centres unmarked) [thalidomide], for which, in test [2], the DoxSA generation entry is listed as “no effect” and the “SA (sphinganine) generation / accumulation” value is given as “no effect”.

For the origin of these results see patent US20130005783A1, “Prevention And Treatment Of Diseases Caused By Elevated Levels Of Deoxy-Sphingolipids” (priority 2010, published 2013).
